# Data: ChEMBL document CHEMBL5233269, “Anticancer potential of spirocompounds in medicinal chemistry: A pentennial expedition” (Eur J Med Chem, 2021)
# Experiments:
# [1] = tested on: A-375; assay: Cytotoxicity against human A-375 cells at 10 ug/ml incubated for 24 hrs by MTT assay; format: functional; details: dose 10 µg/ml
# [2] = tested on: A-375; assay: Cytotoxicity against human A-375 cells at 100 ug/ml incubated for 24 hrs by MTT assay; format: functional; details: dose 100 µg/ml
# [3] = tested on: A549; assay: Antiproliferative activity against human A549 cells assessed as reduction in cell viability; format: functional, cell-based
# [4] = tested on: MCF7; assay: Antiproliferative activity against human MCF7 cells assessed as reduction in cell viability; format: functional, cell-based
# [5] = tested on: MDA-MB-231; assay: Antiproliferative activity against human MDA-MB-231 cells; format: functional, cell-based
# [6] = tested on: HeLa; assay: Antiproliferative activity against human HeLa cells; format: functional, cell-based
# [7] = tested on: 4T1; assay: Anticancer activity against mouse 4T1 cells at 200 microg/ml measured after 48 hrs relative to control; format: functional
# [8] = tested on: HepG2; assay: Anticancer activity against human HepG2 cells at 200 microg/ml measured after 48 hrs relative to control; format: functional
# [9] = tested on: A549; assay: Antiproliferative activity against human A549 cells; format: functional, cell-based
# [10] = tested on: MCF7; assay: Antiproliferative activity against human MCF7 cells; format: functional, cell-based
# [11] = tested on: MCF7; assay: Anticancer activity against human MCF7 cells assessed as reduction of cell growth; format: functional, cell-based
# [12] = tested on: A-431; assay: Anticancer activity against human A-431 cells; format: functional, cell-based
# [13] = tested on: PC-3; assay: Anticancer activity against human PC-3 cells assessed as reduction of cell growth; format: functional, cell-based
# [14] = Anticancer activity against human MCF-10A cells assessed as reduction of cell growth; format: toxicity, cell-based
# [15] = tested on: MDA-MB-231; assay: Antiproliferative activity against human MDA-MB-231 cells assessed as inhibition of cell viability by MTT assay; format: functional, cell-based
# [16] = tested on: MCF7; assay: Antiproliferative activity against human MCF7 cells by MTT assay; format: functional, cell-based
# [17] = biological target: Tumour suppressor p53/oncoprotein Mdm2 (Homo sapiens) (UniProt P04637+Q00987); assay: Inhibition of MDM2/p53 (unknown origin) interaction at 10 uM relative to control; format: protein assay
# Sequence of Tumour suppressor p53/oncoprotein Mdm2 (Homo sapiens) (P04637 whole entry, looked up): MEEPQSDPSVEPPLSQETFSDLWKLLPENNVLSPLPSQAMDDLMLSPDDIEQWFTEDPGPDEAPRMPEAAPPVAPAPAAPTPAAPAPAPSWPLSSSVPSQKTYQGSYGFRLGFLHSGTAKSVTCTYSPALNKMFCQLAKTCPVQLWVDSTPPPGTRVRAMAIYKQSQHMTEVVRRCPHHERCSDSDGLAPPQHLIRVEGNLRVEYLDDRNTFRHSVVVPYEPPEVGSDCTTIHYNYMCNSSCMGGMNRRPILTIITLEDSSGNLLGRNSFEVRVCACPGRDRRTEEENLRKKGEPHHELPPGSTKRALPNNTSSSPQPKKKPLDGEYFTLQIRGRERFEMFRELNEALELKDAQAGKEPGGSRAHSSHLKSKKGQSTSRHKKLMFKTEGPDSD
# Sequence of Tumour suppressor p53/oncoprotein Mdm2 (Homo sapiens) (Q00987 whole entry, looked up): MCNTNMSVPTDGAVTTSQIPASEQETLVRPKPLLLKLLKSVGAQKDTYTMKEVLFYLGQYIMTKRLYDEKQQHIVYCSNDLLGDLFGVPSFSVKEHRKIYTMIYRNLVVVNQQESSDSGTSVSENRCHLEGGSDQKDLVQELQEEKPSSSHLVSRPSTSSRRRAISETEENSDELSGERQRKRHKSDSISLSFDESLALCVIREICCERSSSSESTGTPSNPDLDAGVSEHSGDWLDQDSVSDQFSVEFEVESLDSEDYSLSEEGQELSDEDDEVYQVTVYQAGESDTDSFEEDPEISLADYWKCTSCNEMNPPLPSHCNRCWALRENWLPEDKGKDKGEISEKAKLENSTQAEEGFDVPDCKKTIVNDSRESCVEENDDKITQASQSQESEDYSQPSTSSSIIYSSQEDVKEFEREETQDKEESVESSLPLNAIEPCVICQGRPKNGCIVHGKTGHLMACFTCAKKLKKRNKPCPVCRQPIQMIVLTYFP
# [18] = tested on: LNCaP; assay: Anticancer activity against human LNCaP cells at 100 uM relative to control; format: functional
# [19] = tested on: PC-3; assay: Anticancer activity against human PC-3 cells at 100 uM relative to control; format: functional
# [20] = biological target: cGMP-specific 3',5'-cyclic phosphodiesterase (Homo sapiens) (UniProt O76074); assay: Inhibition of PDE5 (unknown origin) at 3 nM relative to control
# [21] = tested on: HeLa; assay: Anticancer activity against human HeLa cells assessed as inhibition of cell proliferation; format: functional, cell-based
# [22] = tested on: B16-F10; assay: Anticancer activity against mouse B16-F10 cells; format: functional, cell-based
# [23] = tested on: HeLa; assay: Cytotoxicity against human HeLa cells incubated for 24 hrs by MTT assay; format: functional, cell-based
# [24] = tested on: HeLa; assay: Cytotoxicity against human HeLa cells incubated for 48 hrs by MTT assay; format: functional, cell-based
# [25] = tested on: HeLa; assay: Cytotoxicity against human HeLa cells; format: functional, cell-based
# [26] = Cytotoxicity against green monkey Vero cells; format: toxicity, cell-based; details: green monkey (Chlorocebus sabaeus)
# [27] = tested on: LNCaP; assay: Anticancer activity against human LNCaP cells measured after 48 hrs by MTT assay; format: functional, cell-based
# [28] = tested on: Ishikawa; assay: Anticancer activity against human Ishikawa cells measured after 48 hrs by MTT assay; format: functional, cell-based
# [29] = tested on: DU-145; assay: Anticancer activity against human DU-145 cells measured after 48 hrs by MTT assay; format: functional, cell-based; details: DU-145, 48 h
# [30] = tested on: MCF7; assay: Anticancer activity against human MCF7 cells measured after 48 hrs by MTT assay; format: functional, cell-based; details: MCF7, 48 h
# [31] = tested on: MDA-MB-231; assay: Anticancer activity against human MDA-MB-231 cells measured after 48 hrs by MTT assay; format: functional, cell-based; details: MDA-MB-231, 48 h
# [32] = tested on: HFF; assay: Antiproliferative activity against human HFF cells incubated for 2 days by MTT assay; format: functional, cell-based; details: 48 h
# [33] = tested on: MCF7; assay: Antiproliferative activity against human MCF7 cells incubated for 2 days by MTT assay; format: functional, cell-based; details: MCF7, 48 h
# [34] = tested on: HT-29; assay: Antiproliferative activity against human HT-29 cells incubated for 2 days by MTT assay; format: functional, cell-based; details: HT-29, 48 h
# [35] = tested on: T47D; assay: Antiproliferative activity against human T47D cells incubated for 2 days by MTT assay; format: functional, cell-based; details: 48 h
# [36] = tested on: HepG2; assay: Antiproliferative activity against human HepG2 cells incubated for 2 days by MTT assay; format: functional, cell-based; details: HepG2, 48 h
smiles,measurement,setting,value
CCN1C(=O)C2(c3ccccc31)N(C)CC(n1ccc3ccccc31)C2(C#N)C#N (centres undefined),Activity,[1],95.86%
same,Activity,[2],85.69%
COc1ccc(-n2nc(-c3ccccc3)nc2N2C(=O)COC23C=CC(=O)C=C3)cc1,IC50,[3],0.0268 µM
same,IC50,[4],0.0888 µM
same,IC50,[5],0.0277 µM
same,IC50,[6],0.01 µM
COc1ccc(C(=O)[C@H]2[C@]3(C(=O)Nc4ccc(Cl)cc43)[C@@H]3c4ccccc4CCN3[C@@]23C(=O)Nc2ccc(Cl)cc23)cc1,inhibition at 200 µg/mL,[7],23.2%
same,inhibition at 200 µg/mL,[8],70.1%
CN1CC(n2ccc3ccccc32)C(C#N)(C#N)C12C(=O)N(Cc1ccccc1)c1ccccc12 (centres undefined),Activity,[1],97.29%
same,Activity,[2],95.86%
O=C1C=CC2(C=C1Br)OCC(=O)N2c1nc(-c2cccc(Cl)c2)nn1-c1ccccc1 (centres undefined),IC50,[3],0.0252 µM
same,IC50,[4],0.00411 µM
same,IC50,[5],0.0008 µM
same,IC50,[6],0.0453 µM
N#CC1=C(N)Oc2c(c(=O)oc3ccccc23)C12C(=O)N(Cc1cccc(Br)c1)c1ccccc12 (centres undefined),IC50,[9],29.3 µM
same,IC50,[10],16.2 µM
CC1(C)CC(=O)C2C(C1)N(c1ccccn1)C(=O)C21c2ccccc2NC2C(=O)CC(C)(C)CC21 (centres undefined),IC50,[11],9.88 µM
same,IC50,[12],42.4 µM
same,IC50,[13],73.1 µM
same,IC50,[14],34.6 µM
Clc1cccc(Cl)c1C1=NO[C@@]2(CCCCO2)[C@H]1Br,IC50,[15],43.1 µM
same,IC50,[16],52.4 µM
NC(=O)C1CN(C(=O)N2CCCCC2)C2(C(=O)Nc3ccccc32)C1c1ccccc1O (centres undefined),inhibition,[17],65.4%
O=C(/C=C/c1cccc(F)c1)c1ccc(OP2(Oc3ccc(C(=O)/C=C/c4cccc(F)c4)cc3)=NP3(=NP4(=N2)Oc2ccccc2-c2ccccc2O4)Oc2ccccc2-c2ccccc2O3)cc1,Activity,[18],63.78%
same,Activity,[19],43.71%
Cc1ccc2c(c1)[C@]1(C(=O)N2)[C@@H](C(=O)c2ccccc2)[C@]2(C(=O)Nc3ccccc32)[C@@H]2c3ccccc3CCN21,inhibition at 200 µg/mL,[7],20.8%
same,inhibition at 200 µg/mL,[8],66.7%
CC1(C)CC(=O)C2C(C1)N(c1ccccc1F)C(=O)C21c2ccccc2NC2C(=O)CC(C)(C)CC21 (centres undefined),IC50,[11],7.82 µM
same,IC50,[12],52.1 µM
same,IC50,[13],84.9 µM
same,IC50,[14],36.3 µM
O=C1NC2(CCCCC2)Nc2ccccc21,inhibition,[20],100%
Cc1cc(Cl)ccc1[C@@H]1N(C)C2(CC13C(=O)N(C)C(=O)N(C)C3=O)C(=O)c1ccccc1C2=O,IC50,[21],434 µM
same,IC50,[22],8.4 µM
CCC(C)N1C(=O)C2(C(C#N)=C(N)Oc3c2c(=O)oc2ccccc32)c2ccccc21 (centres undefined),IC50,[9],34.1 µM
same,IC50,[10],37.6 µM
Cc1cn(CN2C(=O)C3(c4ccccc42)C(C(=O)c2ccccc2)C3C(=O)c2ccc(Cl)cc2)nn1 (centres undefined),IC50,[23],9.3 µM
same,IC50,[24],4.5 µM
O=C(c1ccccn1)[C@@H]1[C@@H](c2ccccc2Cl)[C@H](c2ccccc2)NC12C(=O)Nc1ccccc12 (some centres undefined),IC50,[25],70 µg/mL
same,IC50,[26],> 110 µg/mL
O=C1NC2(C3=C(C(=O)C4C=CC=CC4C3=O)c3cc(Cl)ccc32)c2ccccc21 (centres undefined),IC50,[27],5.34 µM
same,IC50,[28],1.39 µM
same,IC50,[29],1.68 µM
same,IC50,[30],5.11 µM
same,IC50,[31],17.6 µM
COc1ccc(C2=NOC3(Cc4ccccc4C3=O)C2c2ccc(S(C)(=O)=O)cc2)cc1OC (centres undefined),IC50,[32],33.9 µM
same,IC50,[33],53.7 µM
same,IC50,[34],94.6 µM
same,IC50,[35],21.4 µM
same,IC50,[36],0.059 µM
Cc1ccc(C(=O)[C@H]2[C@]3(C(=O)Nc4ccc(F)cc43)[C@@H]3c4ccccc4CCN3[C@@]23C(=O)Nc2ccc(Cl)cc23)cc1,inhibition at 200 µg/mL,[7],33.3%
same,inhibition at 200 µg/mL,[8],73.5%
O=C(c1ccccn1)[C@@H]1[C@@H](c2ccc(Cl)cc2Cl)[C@H](c2ccccc2)NC12C(=O)Nc1ccccc12 (some centres undefined),IC50,[25],16 µg/mL
same,IC50,[26],17 µg/mL
